Converted amounts (≈) assume the structure as drawn.
How the values were obtained:
Format in all cases: functional
Staphylococcus aureus [1] = assay: Antibacterial activity against Staphylococcus aureus ATCC 25923 after 18 to 24 hrs by CLSI two fold serial dilution method
Staphylococcus aureus [2] = assay: Antibacterial activity against methicillin-resistant Staphylococcus aureus N315 after 18 to 24 hrs by CLSI two fold serial dilution method
Bacillus subtilis = assay: Antibacterial activity against Bacillus subtilis ATCC 21216 after 18 to 24 hrs by CLSI two fold serial dilution method
Micrococcus luteus = assay: Antibacterial activity against Micrococcus luteus ATCC 4698 after 18 to 24 hrs by CLSI two fold serial dilution method
Enterococcus faecalis = assay: Antibacterial activity against drug-resistant Enterococcus faecalis after 18 to 24 hrs by CLSI two fold serial dilution method
Escherichia coli [3] = assay: Antibacterial activity against Escherichia coli DH52 after 18 to 24 hrs by CLSI two fold serial dilution method
Escherichia coli [4] = assay: Antibacterial activity against drug-resistant Escherichia coli after 18 to 24 hrs by CLSI two fold serial dilution method
Pseudomonas aeruginosa [5] = assay: Antibacterial activity against Pseudomonas aeruginosa ATCC 27853 after 18 to 24 hrs by CLSI two fold serial dilution method
Pseudomonas aeruginosa [6] = assay: Antibacterial activity against drug-resistant Pseudomonas aeruginosa after 18 to 24 hrs by CLSI two fold serial dilution method
Klebsiella pneumoniae = assay: Antibacterial activity against drug-resistant Klebsiella pneumoniae after 18 to 24 hrs by CLSI two fold serial dilution method
Acinetobacter baumannii = assay: Antibacterial activity against drug-resistant Acinetobacter baumannii after 18 to 24 hrs by CLSI two fold serial dilution method
Candida albicans [7] = assay: Antifungal activity against Candida albicans ATCC 76615 by CLSI two fold serial dilution method
Cyberlindnera jadinii = assay: Antifungal activity against Candida utilis ATCC 9950 by CLSI two fold serial dilution method; settings: Williopsis jadinii
Pichia norvegensis = assay: Antifungal activity against Candida mycoderma ATCC 96918 by CLSI two fold serial dilution method
Aspergillus flavus = assay: Antifungal activity against Aspergillus flavus ATCC 204304 by CLSI two fold serial dilution method
Saccharomyces cerevisiae = assay: Antifungal activity against Saccharomyces cerevisiae ATCC 9763 by CLSI two fold serial dilution method
Candida parapsilosis = assay: Antifungal activity against Candida parapsilosis ATCC 22019 by CLSI two fold serial dilution method; settings: Lodderomyces parapsilosis
Candida albicans [8] = assay: Antifungal activity against drug-resistant Candida albicans by CLSI two fold serial dilution method
Candida tropicalis = assay: Antifungal activity against drug-resistant Candida tropicalis by CLSI two fold serial dilution method
Aspergillus fumigatus = assay: Antifungal activity against drug-resistant Aspergillus fumigatus by CLSI two fold serial dilution method

COc1cc(/C=N/NC(N)=S)c2c(c1OCc1ccc(F)cc1)CN1CCc3cc4c(cc3C1C2)OCO4 (configuration not stated)
MIC (Staphylococcus aureus [1]): 120 µM (≈ 64.2 µg/mL) | MIC (Staphylococcus aureus [2]): 120 µM (≈ 64.2 µg/mL) | MIC (Bacillus subtilis): 480 µM (≈ 257 µg/mL) | MIC (Micrococcus luteus): 480 µM (≈ 257 µg/mL) | MIC (Enterococcus faecalis): 120 µM (≈ 64.2 µg/mL) | MIC (Escherichia coli [3]): 240 µM (≈ 128 µg/mL) | MIC (Escherichia coli [4]): 240 µM (≈ 128 µg/mL) | MIC (Pseudomonas aeruginosa [5]): 240 µM (≈ 128 µg/mL) | MIC (Pseudomonas aeruginosa [6]): 240 µM (≈ 128 µg/mL) | MIC (Klebsiella pneumoniae): 480 µM (≈ 257 µg/mL) | MIC (Acinetobacter baumannii): 8 µM (≈ 4.28 µg/mL) | MIC (Candida albicans [7]): 120 µM (≈ 64.2 µg/mL) | MIC (Cyberlindnera jadinii): 480 µM (≈ 257 µg/mL) | MIC (Pichia norvegensis): 240 µM (≈ 128 µg/mL) | MIC (Aspergillus flavus): 480 µM (≈ 257 µg/mL) | MIC (Saccharomyces cerevisiae): 240 µM (≈ 128 µg/mL) | MIC (Candida parapsilosis): 60 µM (≈ 32.1 µg/mL) | MIC (Candida albicans [8]): 120 µM (≈ 64.2 µg/mL) | MIC (Candida tropicalis): 120 µM (≈ 64.2 µg/mL) | MIC (Aspergillus fumigatus): 120 µM (≈ 64.2 µg/mL)

CCCCCCCCOc1c(OC)cc(/C=N/Nc2nccs2)c2c1CN1CCc3cc4c(cc3C1C2)OCO4 (configuration not stated)
MIC (Staphylococcus aureus [1]): 230 µM (≈ 129 µg/mL) | MIC (Bacillus subtilis): 450 µM (≈ 253 µg/mL) | MIC (Micrococcus luteus): 450 µM (≈ 253 µg/mL) | MIC (Escherichia coli [3]): 450 µM (≈ 253 µg/mL) | MIC (Pseudomonas aeruginosa [5]): 230 µM (≈ 129 µg/mL) | MIC (Candida albicans [7]): 230 µM (≈ 129 µg/mL) | MIC (Cyberlindnera jadinii): 460 µM (≈ 259 µg/mL) | MIC (Pichia norvegensis): 460 µM (≈ 259 µg/mL) | MIC (Aspergillus flavus): 460 µM (≈ 259 µg/mL) | MIC (Saccharomyces cerevisiae): 460 µM (≈ 259 µg/mL) | MIC (Candida parapsilosis): 230 µM (≈ 129 µg/mL)

COc1cc(/C=N/NC(N)=S)c2c(c1OCc1ccccc1F)CN1CCc3cc4c(cc3C1C2)OCO4 (configuration not stated)
MIC (Staphylococcus aureus [1]): 30 µM (≈ 16 µg/mL) | MIC (Staphylococcus aureus [2]): 30 µM (≈ 16 µg/mL) | MIC (Bacillus subtilis): 240 µM (≈ 128 µg/mL) | MIC (Micrococcus luteus): 240 µM (≈ 128 µg/mL) | MIC (Enterococcus faecalis): 240 µM (≈ 128 µg/mL) | MIC (Escherichia coli [3]): 240 µM (≈ 128 µg/mL) | MIC (Escherichia coli [4]): 240 µM (≈ 128 µg/mL) | MIC (Pseudomonas aeruginosa [5]): 480 µM (≈ 257 µg/mL) | MIC (Pseudomonas aeruginosa [6]): 480 µM (≈ 257 µg/mL) | MIC (Klebsiella pneumoniae): 480 µM (≈ 257 µg/mL) | MIC (Acinetobacter baumannii): 4 µM (≈ 2.14 µg/mL) | MIC (Candida albicans [7]): 480 µM (≈ 257 µg/mL) | MIC (Cyberlindnera jadinii): 480 µM (≈ 257 µg/mL) | MIC (Pichia norvegensis): 240 µM (≈ 128 µg/mL) | MIC (Aspergillus flavus): 480 µM (≈ 257 µg/mL) | MIC (Saccharomyces cerevisiae): 960 µM (≈ 513 µg/mL) | MIC (Candida parapsilosis): 240 µM (≈ 128 µg/mL) | MIC (Candida albicans [8]): 480 µM (≈ 257 µg/mL) | MIC (Candida tropicalis): 120 µM (≈ 64.2 µg/mL) | MIC (Aspergillus fumigatus): 4 µM (≈ 2.14 µg/mL)

COc1cc(/C=N/NC(N)=S)c2c(c1OCc1ccccc1Cl)CN1CCc3cc4c(cc3C1C2)OCO4 (configuration not stated)
MIC (Staphylococcus aureus [1]): 120 µM (≈ 66.1 µg/mL) | MIC (Staphylococcus aureus [2]): 120 µM (≈ 66.1 µg/mL) | MIC (Bacillus subtilis): 230 µM (≈ 127 µg/mL) | MIC (Micrococcus luteus): 230 µM (≈ 127 µg/mL) | MIC (Enterococcus faecalis): 230 µM (≈ 127 µg/mL) | MIC (Escherichia coli [3]): 230 µM (≈ 127 µg/mL) | MIC (Escherichia coli [4]): 230 µM (≈ 127 µg/mL) | MIC (Pseudomonas aeruginosa [5]): 470 µM (≈ 259 µg/mL) | MIC (Pseudomonas aeruginosa [6]): 470 µM (≈ 259 µg/mL) | MIC (Klebsiella pneumoniae): 230 µM (≈ 127 µg/mL) | MIC (Acinetobacter baumannii): 4 µM (≈ 2.2 µg/mL) | MIC (Candida albicans [7]): 230 µM (≈ 127 µg/mL) | MIC (Cyberlindnera jadinii): 230 µM (≈ 127 µg/mL) | MIC (Pichia norvegensis): 230 µM (≈ 127 µg/mL) | MIC (Aspergillus flavus): 470 µM (≈ 259 µg/mL) | MIC (Saccharomyces cerevisiae): 930 µM (≈ 512 µg/mL) | MIC (Candida parapsilosis): 230 µM (≈ 127 µg/mL) | MIC (Candida albicans [8]): 230 µM (≈ 127 µg/mL) | MIC (Candida tropicalis): 470 µM (≈ 259 µg/mL) | MIC (Aspergillus fumigatus): 4 µM (≈ 2.2 µg/mL)

COc1cc(/C=N/NC(N)=S)c2c(c1OCc1ccc(Cl)cc1)CN1CCc3cc4c(cc3C1C2)OCO4 (configuration not stated)
MIC (Staphylococcus aureus [1]): 230 µM (≈ 127 µg/mL) | MIC (Staphylococcus aureus [2]): 230 µM (≈ 127 µg/mL) | MIC (Bacillus subtilis): 470 µM (≈ 259 µg/mL) | MIC (Micrococcus luteus): 230 µM (≈ 127 µg/mL) | MIC (Enterococcus faecalis): 230 µM (≈ 127 µg/mL) | MIC (Escherichia coli [3]): 230 µM (≈ 127 µg/mL) | MIC (Escherichia coli [4]): 230 µM (≈ 127 µg/mL) | MIC (Pseudomonas aeruginosa [5]): 230 µM (≈ 127 µg/mL) | MIC (Pseudomonas aeruginosa [6]): 230 µM (≈ 127 µg/mL) | MIC (Klebsiella pneumoniae): 120 µM (≈ 66.1 µg/mL) | MIC (Acinetobacter baumannii): 230 µM (≈ 127 µg/mL) | MIC (Candida albicans [7]): 230 µM (≈ 127 µg/mL) | MIC (Cyberlindnera jadinii): 470 µM (≈ 259 µg/mL) | MIC (Pichia norvegensis): 230 µM (≈ 127 µg/mL) | MIC (Aspergillus flavus): 470 µM (≈ 259 µg/mL) | MIC (Saccharomyces cerevisiae): 470 µM (≈ 259 µg/mL) | MIC (Candida parapsilosis): 7 µM (≈ 3.86 µg/mL) | MIC (Candida albicans [8]): 230 µM (≈ 127 µg/mL) | MIC (Candida tropicalis): 230 µM (≈ 127 µg/mL) | MIC (Aspergillus fumigatus): 470 µM (≈ 259 µg/mL)

C#CCOc1c(OC)cc(/C=N/Nc2nccs2)c2c1CN1CCc3cc4c(cc3C1C2)OCO4 (configuration not stated)
MIC (Staphylococcus aureus [1]): 130 µM (≈ 63.5 µg/mL) | MIC (Bacillus subtilis): 520 µM (≈ 254 µg/mL) | MIC (Micrococcus luteus): 520 µM (≈ 254 µg/mL) | MIC (Escherichia coli [3]): 130 µM (≈ 63.5 µg/mL) | MIC (Pseudomonas aeruginosa [5]): 130 µM (≈ 63.5 µg/mL) | MIC (Candida albicans [7]): 260 µM (≈ 127 µg/mL) | MIC (Cyberlindnera jadinii): 260 µM (≈ 127 µg/mL) | MIC (Pichia norvegensis): 1050 µM (≈ 513 µg/mL) | MIC (Aspergillus flavus): 1050 µM (≈ 513 µg/mL) | MIC (Saccharomyces cerevisiae): 1050 µM (≈ 513 µg/mL) | MIC (Candida parapsilosis): 130 µM (≈ 63.5 µg/mL)

COc1cc(/C=N/NC(N)=S)c2c(c1OCC#N)CN1CCc3cc4c(cc3C1C2)OCO4 (configuration not stated)
MIC (Staphylococcus aureus [1]): 280 µM (≈ 130 µg/mL) | MIC (Staphylococcus aureus [2]): 280 µM (≈ 130 µg/mL) | MIC (Bacillus subtilis): 550 µM (≈ 256 µg/mL) | MIC (Micrococcus luteus): 280 µM (≈ 130 µg/mL) | MIC (Enterococcus faecalis): 280 µM (≈ 130 µg/mL) | MIC (Escherichia coli [3]): 280 µM (≈ 130 µg/mL) | MIC (Escherichia coli [4]): 280 µM (≈ 130 µg/mL) | MIC (Pseudomonas aeruginosa [5]): 280 µM (≈ 130 µg/mL) | MIC (Pseudomonas aeruginosa [6]): 280 µM (≈ 130 µg/mL) | MIC (Klebsiella pneumoniae): 550 µM (≈ 256 µg/mL) | MIC (Acinetobacter baumannii): 280 µM (≈ 130 µg/mL) | MIC (Candida albicans [7]): 280 µM (≈ 130 µg/mL) | MIC (Cyberlindnera jadinii): 280 µM (≈ 130 µg/mL) | MIC (Pichia norvegensis): 550 µM (≈ 256 µg/mL) | MIC (Aspergillus flavus): 280 µM (≈ 130 µg/mL) | MIC (Saccharomyces cerevisiae): 280 µM (≈ 130 µg/mL) | MIC (Candida parapsilosis): 280 µM (≈ 130 µg/mL) | MIC (Candida albicans [8]): 280 µM (≈ 130 µg/mL) | MIC (Candida tropicalis): 280 µM (≈ 130 µg/mL) | MIC (Aspergillus fumigatus): 70 µM (≈ 32.6 µg/mL)

CCCCOc1c(OC)cc(/C=N/NC(N)=S)c2c1CN1CCc3cc4c(cc3C1C2)OCO4 (configuration not stated)
MIC (Staphylococcus aureus [1]): 130 µM (≈ 62.7 µg/mL) | MIC (Staphylococcus aureus [2]): 130 µM (≈ 62.7 µg/mL) | MIC (Bacillus subtilis): 270 µM (≈ 130 µg/mL) | MIC (Micrococcus luteus): 270 µM (≈ 130 µg/mL) | MIC (Enterococcus faecalis): 130 µM (≈ 62.7 µg/mL) | MIC (Escherichia coli [3]): 270 µM (≈ 130 µg/mL) | MIC (Escherichia coli [4]): 270 µM (≈ 130 µg/mL) | MIC (Pseudomonas aeruginosa [5]): 130 µM (≈ 62.7 µg/mL) | MIC (Pseudomonas aeruginosa [6]): 270 µM (≈ 130 µg/mL) | MIC (Klebsiella pneumoniae): 130 µM (≈ 62.7 µg/mL) | MIC (Acinetobacter baumannii): 70 µM (≈ 33.8 µg/mL) | MIC (Candida albicans [7]): 130 µM (≈ 62.7 µg/mL) | MIC (Cyberlindnera jadinii): 130 µM (≈ 62.7 µg/mL) | MIC (Pichia norvegensis): 130 µM (≈ 62.7 µg/mL) | MIC (Aspergillus flavus): 270 µM (≈ 130 µg/mL) | MIC (Saccharomyces cerevisiae): 530 µM (≈ 256 µg/mL) | MIC (Candida parapsilosis): 130 µM (≈ 62.7 µg/mL) | MIC (Candida albicans [8]): 130 µM (≈ 62.7 µg/mL) | MIC (Candida tropicalis): 270 µM (≈ 130 µg/mL) | MIC (Aspergillus fumigatus): 270 µM (≈ 130 µg/mL)

From ChEMBL document CHEMBL4145497, “Discovery of 2-aminothiazolyl berberine derivatives as effectively antibacterial agents toward clinically drug-resistant Gram-negative Acinetobacter baumanii” (Eur J Med Chem, 2018)
